Assays:
Type in all cases: in vivo
[1] = test system: windgrass (Apera spica-venti); assay: Test D pre-/postemergence: windgrass
Summary of the method: (§1)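 Species were sown in silt loam and sprayed preemergence, or grown in peat/vermiculite medium and sprayed postemergence at the 1- to 4-leaf stage (2–18 cm), with compounds in a surfactant-containing solvent. Injury was visually rated against untreated controls after 14–21 days, on a 0 (no effect) to 100 (complete control) scale.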

[2] = test system: oilseed rape (Brassica napus); assay: Test D pre-/postemergence: oilseed rape
Summary of the method: as §1

[3] = test system: bromegrass, downy (downy bromegrass, Bromus tectorum); assay: Test D pre-/postemergence: bromegrass, downy
Summary of the method: as §1

[4] = test system: bluegrass (annual bluegrass, Poa annua); assay: Test D pre-/postemergence: bluegrass
Summary of the method: as §1

[5] = test system: field poppy (Papaver rhoeas); assay: Test D pre-/postemergence: field poppy
Summary of the method: as §1

[6] = test system: barley, winter (winter barley, Hordeum vulgare); assay: Test D pre-/postemergence: barley, winter
Summary of the method: as §1

[7] = test system: foxtail, green (green foxtail, Setaria viridis); assay: Test C pre-/postemergence: foxtail, green
Summary of the method: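 Preemergence on seeds in loam/sand, postemergence on 2–18 cm (1–4-leaf) plants in peat-based medium; compounds in non-phytotoxic solvent with surfactant. After 13–15 days in greenhouse, visual rating versus controls, 0 (no effect) to 100 (complete control).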

[8] = Postemergence, 62 g ai/ha, scale 0 to 100 (0 no effect, 100 complete control)
[9] = Postemergence, 125 g ai/ha, scale 0 to 100, 0 no effect, 100 complete control
[10] = Postemergence, 250 g ai/ha, scale 0 to 100 (0 no effect, 100 complete control)
[11] = Postemergence, 16 g ai/ha, scale 0 to 100
[12] = Preemergence, 16 g ai/ha, scale 0 to 100 (0 no effect, 100 complete control)
[13] = Preemergence, 31 g ai/ha, scale 0 to 100 (0 no effect, 100 complete control)
[14] = Preemergence, 62 g ai/ha, scale 0 to 100
[15] = Preemergence, 125 g ai/ha, scale 0 to 100
[16] = Preemergence, 250 g ai/ha, scale 0 to 100
[17] = Postemergence, 31 g ai/ha, scale 0 to 100 (0 no effect, 100 complete control)

## CCOc1nn(-c2ccc(F)cc2)nc1Cc1ccnc(C(F)F)c1 [Compound 195]
[1]; [8]
  Plant response rating: Windgrass: 30
[1]; [9]
  Plant response rating: Windgrass: 70
[1]; [10]
  Plant response rating: Windgrass: 80
[1]; [11]
  Plant response rating, Windgrass: 10
[1]; Postemergence, 31 g ai/ha, scale 0 to 100
  Plant response rating, Windgrass: 15
[1]; [12]
  Plant response rating, Windgrass: 25
[1]; [13]
  Plant response rating, Windgrass: 40
[1]; [14]
  Plant response rating, Windgrass: 75
[1]; [15]
  Plant response rating, Windgrass: 100
[1]; [16]
  Plant response rating, Windgrass: 100
[2]; [17]
  Plant response rating: Oilseed Rape: 85
[2]; [8]
  Plant response rating: Oilseed Rape: 95
[2]; [9]
  Plant response rating: Oilseed Rape: 100
[2]; [10]
  Plant response rating: Oilseed Rape: 100
[2]; [11]
  Plant response rating, Oilseed Rape: 70
[2]; [12]
  Plant response rating, Oilseed Rape: 0
[2]; [13]
  Plant response rating, Oilseed Rape: 0
[2]; [14]
  Plant response rating, Oilseed Rape: 0
[2]; [15]
  Plant response rating, Oilseed Rape: 10
[2]; [16]
  Plant response rating, Oilseed Rape: 20
[3]; [17]
  Plant response rating: Bromegrass, Downy: 15
[3]; [8]
  Plant response rating: Bromegrass, Downy: 20
[3]; [9]
  Plant response rating: Bromegrass, Downy: 35
[3]; [10]
  Plant response rating: Bromegrass, Downy: 40
[3]; [11]
  Plant response rating, Bromegrass, Downy: 5
[3]; [12]
  Plant response rating, Bromegrass, Downy: 0
[3]; [13]
  Plant response rating, Bromegrass, Downy: 0
[3]; [14]
  Plant response rating, Bromegrass, Downy: 25
[3]; [15]
  Plant response rating, Bromegrass, Downy: 35
[3]; [16]
  Plant response rating, Bromegrass, Downy: 50
[4]; [17]
  Plant response rating: Bluegrass: 20
[4]; [8]
  Plant response rating: Bluegrass: 40
[4]; [9]
  Plant response rating: Bluegrass: 60
[4]; [10]
  Plant response rating: Bluegrass: 80
[4]; [11]
  Plant response rating, Bluegrass: 10
[4]; [12]
  Plant response rating, Bluegrass: 0
[4]; [13]
  Plant response rating, Bluegrass: 10
[4]; [14]
  Plant response rating, Bluegrass: 20
[4]; [15]
  Plant response rating, Bluegrass: 50
[4]; [16]
  Plant response rating, Bluegrass: 80
[5]; [17]
  Plant response rating: Field Poppy: 75
[5]; [8]
  Plant response rating: Field Poppy: 95
[5]; [9]
  Plant response rating: Field Poppy: 100
[5]; [10]
  Plant response rating: Field Poppy: 100
[5]; [11]
  Plant response rating, Field Poppy: 35
[5]; [12]
  Plant response rating, Field Poppy: 30
[5]; [13]
  Plant response rating, Field Poppy: 40
[5]; [14]
  Plant response rating, Field Poppy: 60
[5]; [15]
  Plant response rating, Field Poppy: 100
[5]; [16]
  Plant response rating, Field Poppy: 100
[6]; [17]
  Plant response rating: Barley, Winter: 10
[6]; [8]
  Plant response rating: Barley, Winter: 15
[6]; [9]
  Plant response rating: Barley, Winter: 30
[6]; [10]
  Plant response rating: Barley, Winter: 45
[6]; [11]
  Plant response rating, Barley, Winter: 0
[6]; [12]
  Plant response rating, Barley, Winter: 0
[6]; [13]
  Plant response rating, Barley, Winter: 0
[6]; [14]
  Plant response rating, Barley, Winter: 0
[6]; [15]
  Plant response rating, Barley, Winter: 0
[6]; [16]
  Plant response rating, Barley, Winter: 20
[7]; [17]
  Plant response rating, Foxtail, Green: 100
[7]; [8]
  Plant response rating, Foxtail, Green: 100
[7]; [9]
  Plant response rating, Foxtail, Green: 100
[7]; [10]
  Plant response rating, Foxtail, Green: 100
[7]; Preemergence, 31 g ai/ha, scale 0 (no effect) to 100 (complete control)
  Plant response rating, Foxtail, Green: 90
[7]; Preemergence, 62 g ai/ha, scale of 0 to 100, 0 is no effect, 100 is complete control
  Plant response rating, Foxtail, Green: 90
[7]; Preemergence, 125 g ai/ha, scale 0 to 100, 0 no effect, 100 complete control
  Plant response rating, Foxtail, Green: 90
[7]; Preemergence, 250 g ai/ha, scale 0 to 100, 0 no effect, 100 complete control
  Plant response rating, Foxtail, Green: 90

Source: US9302999B2, “Substituted triazoles as herbicides” (E. I. DU PONT DE NEMOURS AND COMPANY, priority 2012, dated 2016)
